From PubChem BioAssay (NCI)
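In this assay, cells in 96-well plates receive the compound at five concentrations for 48 hours. Endpoints are linearly interpolated between the surrounding concentrations. GI50: concentration for 50% inhibition of growth. TGI is the concentration that stops growth completely.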

Assays:
Test in all cases: inhibition of tumour cell growth, NCI panel, 48 h
COLO 205 colon = system: COLO 205 colon
HCC-2998 colon = system: HCC-2998 colon
LOX IMVI melanoma = system: LOX IMVI melanoma
MALME-3M melanoma = system: MALME-3M melanoma
NCI-H23 lung = system: NCI-H23 lung
NCI/ADR-RES ovarian = system: NCI/ADR-RES ovarian
OVCAR-5 ovarian = system: OVCAR-5 ovarian
SF-539 CNS = system: SF-539 CNS
SK-OV-3 ovarian = system: SK-OV-3 ovarian
SW-620 colon = system: SW-620 colon

| Structure (SMILES) | TGI (COLO 205 colon) [µM] | TGI (HCC-2998 colon) [µM] | TGI (LOX IMVI melanoma) [µM] | TGI (MALME-3M melanoma) [µM] | TGI (NCI-H23 lung) [µM] | TGI (NCI/ADR-RES ovarian) [µM] | TGI (OVCAR-5 ovarian) [µM] | TGI (SF-539 CNS) [µM] | TGI (SK-OV-3 ovarian) [µM] | TGI (SW-620 colon) [µM] | GI50 (HCC-2998 colon) [nM] | GI50 (MALME-3M melanoma) [nM] | GI50 (COLO 205 colon) [nM] | GI50 (LOX IMVI melanoma) [nM] | GI50 (NCI-H23 lung) [nM] | GI50 (NCI/ADR-RES ovarian) [nM] | GI50 (OVCAR-5 ovarian) [nM] | GI50 (SF-539 CNS) [nM] | GI50 (SK-OV-3 ovarian) [nM] | GI50 (SW-620 colon) [nM] |
| --- | --- | --- | --- | --- | --- | --- | --- | --- | --- | --- | --- | --- | --- | --- | --- | --- | --- | --- | --- | --- |
| CCCC(CC)c1cc(O)c(O)cc1C(CC)CCC (configuration not stated) | > 10 | > 10 | > 10 | > 10 | > 10 | > 10 | > 10 | > 10 | > 10 | > 10 | – | – | – | – | – | – | – | – | – | – |
| COc1cccc(OC/C(N=Cc2ccncc2)=N/NC(=O)c2ccncc2)c1 | > 100 | > 100 | > 100 | > 100 | > 100 | > 100 | > 100 | > 100 | > 100 | > 100 | – | – | – | – | – | – | – | – | – | – |
| CC(C)CCCC(C)[C@H]1CC[C@H]2NCCCC[C@]12C (some centres not stated) | 3.14 | 2.72 | 4.23 | 16.4 | 23.8 | 20.7 | 6.03 | 19.5 | 28.4 | 9.84 | – | – | – | – | – | – | – | – | – | – |
| COC(=O)NC(Nc1ccc(C)cc1)(C(F)(F)F)C(F)(F)F | > 100 | > 100 | > 100 | > 100 | > 100 | > 100 | > 100 | > 100 | > 100 | > 100 | – | – | – | – | – | – | – | – | – | – |
| CCCCNC(=S)Nc1nc(C(=O)NNC(=S)NCc2ccccc2)cs1 | > 100 | > 100 | > 100 | > 100 | > 100 | > 100 | > 100 | 68.6 | > 100 | > 100 | – | – | – | – | – | – | – | – | – | – |
| C=C1CN=C(Nc2ccc(F)cc2F)S1 | > 100 | > 100 | 49.2 | > 100 | > 100 | > 100 | > 100 | > 100 | > 100 | > 100 | – | – | – | – | – | – | – | – | – | – |
| C#Cc1cccc(Nc2ncnc3cc(OCCOC)c(OCCOC)cc23)c1 | > 100 | > 100 | > 100 | 43 | > 100 | > 100 | > 100 | 81 | 5.2 | > 100 | > 88800 | 1850 | – | – | – | – | – | – | – | – |
| Clc1ccc(Cc2nc3ccccc3nc2-c2cccc(Cl)c2)cc1 | 7.88 | 3.65 | 3.58 | 8.24 | 27 | 8.96 | 21.2 | 4.92 | 31.8 | 3.71 | – | – | – | – | – | – | – | – | – | – |
| C=C1CC(Cn2cc(Br)c(=O)[nH]c2=O)(c2ccc(Br)cc2)OC1=O (configuration not stated) | 3.18 | 8.4 | 3.64 | 4.7 | 10.6 | 15.9 | 22.5 | 23.7 | 24.6 | 3.79 | – | – | – | – | – | – | – | – | – | – |
| CC(=O)Nc1nc(C)c(S(=O)(=O)NC(=O)N2c3ccccc3CCc3ccccc32)s1 | > 100 | > 100 | > 100 | > 100 | > 100 | > 100 | > 100 | > 100 | > 100 | > 100 | – | – | – | – | – | – | – | – | – | – |
| O=C1CCc2cc3c(cc21)C(C(=O)O)CC3 (configuration not stated) | > 100 | > 100 | > 100 | > 100 | > 100 | > 100 | > 100 | > 100 | > 100 | > 100 | – | – | – | – | – | – | – | – | – | – |
| OCC1c2ccccc2-n2nc(-c3ccccc3)c(O)c21 (configuration not stated) | 26.5 | 44.8 | 47 | 33.3 | > 100 | 51.1 | > 100 | > 100 | > 100 | 67.3 | – | – | – | – | – | – | – | – | – | – |
| CCn1c(SCc2nnc(Nc3ccccc3)s2)nc2ccccc2c1=O | 43.2 | 31.7 | 25.4 | 14 | 19.4 | 10.9 | 31.1 | 19.3 | 7.66 | > 68.3 | – | – | – | – | – | – | – | – | – | – |
| CC(=O)NCC1OC2COC(c3ccccc3)OC2C2N=C(c3ccccc3)OC12 (configuration not stated) | > 100 | > 100 | > 100 | > 100 | > 100 | > 100 | > 100 | > 100 | > 100 | > 100 | – | – | – | – | – | – | – | – | – | – |
| CN(c1ccc(Cl)cc1)S(=O)(=O)c1ccccc1 | > 100 | > 100 | > 100 | > 100 | > 100 | > 100 | > 100 | > 100 | > 100 | > 100 | – | – | – | – | – | – | – | – | – | – |
| C=C(C)C(=O)O[C@H]1CC2(CO)O[C@@H]2CC/C(COC(C)=O)=C/C2OC(=O)C(=C)[C@@H]21 (some centres not stated) | 48.4 | > 91.6 | > 60 | 62.2 | > 100 | > 100 | > 100 | > 100 | > 100 | 54.7 | – | – | – | – | – | – | – | – | – | – |
| O=C1Sc2cc3ccccc3cc2C(=O)Sc2cc3ccccc3cc21 | > 100 | 58.7 | 48.1 | > 93.5 | > 100 | > 92.3 | > 100 | > 100 | > 100 | > 100 | – | – | – | – | – | – | – | – | – | – |
| C=C(C)[C@@H]1CC[C@]2(C(=O)OC3OC(COC4OC(CO)C(OC5OC(C)C(O)C(O)C5O)C(O)C4O)C(O)C(O)C3O)CC[C@]3(C)[C@H](CC[C@@H]4[C@@]5(C)CC[C@H](O)[C@@](C)(CO)[C@@H]5CC[C@]43C)[C@@H]12 (some centres not stated) | 3.2 | > 6.91 | > 8.27 | > 10 | > 5.57 | > 10 | > 10 | > 7.72 | > 8.62 | > 10 | – | – | – | – | – | – | – | – | – | – |
| O=C(O)c1cc(Nc2c(O)c3c(c(O)c2Cl)C(=O)C=CC3=O)ccc1O | > 10 | > 10 | > 10 | > 10 | > 10 | > 10 | > 10 | > 10 | > 10 | > 10 | – | – | – | – | – | – | – | – | – | – |
| CC(C)Oc1cc2c(cc1O)CC[C@@H]1[C@@H]2CC[C@]2(C)[C@@H](O)CC[C@@H]12 | 40.7 | 20.9 | 18.3 | 27.3 | 37.4 | 19.9 | 60.7 | 6.93 | 48.3 | 27.2 | – | – | – | – | – | – | – | – | – | – |
| Cc1cc2nc3c(N)nn(CCN(C)C)c3nc2cc1C | > 100 | > 100 | 76.2 | > 100 | > 100 | > 100 | > 100 | > 100 | > 100 | > 100 | – | – | – | – | – | – | – | – | – | – |
| COc1ccc(Nc2nc(NNC(=O)Cc3ccccc3)nc(NNC(=O)c3ccncc3)n2)cc1 | > 10 | > 10 | > 10 | > 10 | > 10 | > 10 | > 10 | > 10 | > 10 | > 10 | – | – | – | – | – | – | – | – | – | – |
| CCOC(=O)COC1=Nc2cc(OC)c(OC)c3nc(Cl)cc(c23)C1=O | 3.88 | 10.5 | 4.23 | 2.71 | 5.3 | > 31.4 | 4.11 | 3.87 | 24.1 | > 21.6 | – | – | – | – | – | – | – | – | – | – |
| CCCCN(CCCC)C1=Nc2ccccc2-n2c(nnc2C(=O)OCC)C1 | 36.2 | > 100 | > 100 | 82.1 | > 100 | > 100 | > 100 | > 100 | > 100 | > 100 | – | – | – | – | – | – | – | – | – | – |
| CN1CCCC(OC(=O)c2cc3cc(CCl)ccc3oc2=O)C1 (configuration not stated) | 35.7 | 33.1 | 34.3 | 44.3 | 45.1 | 87 | 43.4 | > 100 | > 100 | 64.8 | – | – | – | – | – | – | – | – | – | – |
| CC1Cc2c(cc(N)nc2Br)NC1=O (configuration not stated) | > 100 | > 100 | > 100 | > 100 | > 100 | > 100 | > 100 | > 100 | > 100 | > 100 | – | – | – | – | – | – | – | – | – | – |
| COc1c(-c2ccc(F)cc2)oc2cc(O)cc(O)c2c1=O | 36.7 | 31.9 | 54.5 | 61.1 | 78.2 | 63.5 | 80.5 | 39.7 | > 100 | > 100 | – | – | – | – | – | – | – | – | – | – |
| CCC1(O)CC(O)c2c(O)c3c(c(O)c2C1C(=O)OC)C(=O)c1cccc(O)c1C3=O (configuration not stated) | 7.65 | 21.4 | 9.92 | 7.08 | 24.4 | 3.28 | 21 | 14.8 | > 36.1 | > 48.2 | – | – | – | – | – | – | – | – | – | – |
| COc1ccc(-c2cc(-c3ccc(OC)c(OC)c3)nc(SCCCC(=O)NO)n2)cc1 | 5.98 | 5.63 | 1.06 | 4.88 | 6.16 | 4.77 | 6.25 | 3.48 | 4.93 | 10.7 | 2140 | 896 | 1750 | 243 | 1960 | 977 | 1530 | 1310 | 1450 | 906 |
